Measurements published in US5352659A, “Endothelin analogs and uses thereof” (Takeda Chemical Industries, priority 1991, dated 1994).
Like-named read-outs stand apart in the source and are kept apart here. Blank lines part the entries; values can stand above or below the molecule they belong to. Bridge positions count the residues as written; N and C are the ends. Square brackets hold non-standard residues; d marks the D form. Peptide text beside a SMILES is read from it. Cha = N[C@@H](CC1CCCCC1)C(=O)O

Assays:
endothelin receptor = experiment: Assay of affinity for receptor (inhibition of 125I-ET-1 binding to porcine myocardial membrane fraction); details: relative to ET-1 = 100
Method: Assay of Affinity for Receptor
A membrane fraction prepared from the porcine heart was diluted to 0.15 mg/ml by using a buffer solution for assay, and 100 μl of the resulting suspension of the membrane fraction was poured into each assay tube to use for assay. To this suspension of the membrane fraction was added 2 μl of 5 nM ^125 I labeled endothelin-1 solution. Further, 3 μl of a test peptide solution was added thereto, followed by incubation at a temperature of 25° C. for 1 hour. Then, the resulting suspension was diluted with 900 μl of the buffer solution for assay cooled with ice, and thereafter separated into a supernatant and a precipitate by centrifugation at 12,000×g for 10 minutes. Cell membranes and an endothelin receptor embedded therein were contained in the precipitate, and radioactive iodine-labeled endothelin combined with the receptor was also recovered in the precipitate. Accordingly, the amount of radioactive iodine-labeled endothelin combined with the endothelin receptor was determined by measuring the amount of radioactive iodine contained in the precipitate with a gamma-ray counter.

porcine coronary artery = experiment: Constrictor activity on porcine coronary smooth muscles; details: for Maximum constriction (% 60 mM KCl): porcine coronary artery strips, normalized to 60 mM KCl response; for Constrictor activity (specific activity): relative to ET-1 = 100, porcine coronary artery
Method: (§1) Spiral strips 2 mm×15 mm prepared from the coronary right ramus circumflexus from which the adventitial connective tissues and the endothelial cells were removed were set to 4 ml organ baths. The tension of each strip was detected by a force displacement transducer UL-10GR (Minebea), and recorded by a polygraph (NEC Sanei). The organ baths were maintained at 37° C., and filled with a Krebs-Henseleit solution (composition: 118 mM NaCl, 4.7 mM KCl, 2.5 mM CaCl2, 1.2 mM KH2 PO4, 25.0 mM NaHCO3, 1.2 mM MgSO4, 10.0 mM glucose) gassed with 95% O2 and 5% CO2.
(§2) A tension of 1.25 to 1.5 g was applied to each of the strips, followed by equilibration for 1.5 hours. 60 mM KCl was repeatedly applied thereto at intervals of 30 minutes until the constriction response became constant. After additional equilibration for 1.5 hours, a sample for assay was given thereto. The constriction of the strips was normalized by the constriction response of the individual strips to 60 mM KCl and statistically processed.
(2) As to the antagonistic property of the peptides of the present invention to endothelin, the affinity for an endothelin receptor and the constrictor activity on porcine coronary smooth muscles (according to the method described in (1) described above) were assayed. The affinity for the receptor was assayed by the following method.

[1] = test system: porcine coronary smooth muscles
Method: (1) Assay of Constrictor Suppressing Activity on Porcine Coronary Smooth Muscles
as §1, §2
pA2 is a negative logarithm value of a molar concentration of a competitive antagonist necessary for shifting in parallel a dose response curve for an active drug (for example, ET-1) alone to the high dose side by a factor of 2.

SMILES: CC[C@H](C)[C@H](NC(=O)[C@H](Cc1ccccc1)NC(=O)[C@@H](NC(=O)[C@H](CC(C)C)NC(=O)[C@H](Cc1c[nH]cn1)NC(=O)[C@@H]1CSSC[C@H](N)C(=O)N[C@@H](CO)C(=O)N[C@H]2CSSC[C@H](NC(=O)[C@H](CCC(=O)O)NC(=O)[C@H](CCCCN)NC(=O)[C@H](CC(=O)O)NC(=O)[C@H](CCSC)NC(=O)[C@H](CC(C)C)NC(=O)[C@H](CO)NC(=O)[C@H](CO)NC2=O)C(=O)N[C@@H](C(C)C)C(=O)N[C@@H](Cc2ccc(O)cc2)C(=O)N[C@@H](Cc2ccccc2)C(=O)N1)[C@@H](C)O)C(=O)N[C@@H](Cc1c[nH]c2ccccc12)C(=O)O [Example 3, [Thr^18, Phe^19]-ET-1] (H-CSCSSLMDKECVYFCHLTFIW-OH; disulfide 1-15, 3-11)
Receptor binding activity (specific activity) (endothelin receptor): 9.0
Maximum constriction (% 60 mM KCl) (porcine coronary artery): 4 % 60 mM KCl
Constrictor activity (specific activity) (porcine coronary artery): < 0.1
Relative potency [1]: 32
pA2 [1]: 7.2

SMILES: CC[C@H](C)[C@H](NC(=O)[C@H](CC(C)C)NC(=O)[C@@H](NC(=O)[C@H](CC(C)C)NC(=O)[C@H](Cc1c[nH]cn1)NC(=O)[C@@H]1CSSC[C@H](N)C(=O)N[C@@H](CO)C(=O)N[C@H]2CSSC[C@H](NC(=O)[C@H](CCC(=O)O)NC(=O)[C@H](C)NC(=O)[C@H](CC(=O)O)NC(=O)[C@H](CCSC)NC(=O)[C@H](CC(C)C)NC(=O)[C@H](CO)NC(=O)[C@H](CO)NC2=O)C(=O)N[C@@H](C(C)C)C(=O)N[C@@H](Cc2ccc(O)cc2)C(=O)N[C@@H](Cc2ccccc2)C(=O)N1)[C@@H](C)O)C(=O)N[C@@H](Cc1c[nH]c2ccccc12)C(=O)O [Example 10, [Ala^9, Thr^18, Leu^19]-ET-1] (H-CSCSSLMDAECVYFCHLTLIW-OH; disulfide 1-15, 3-11)
Receptor binding activity (specific activity) (endothelin receptor): 16
Maximum constriction (% 60 mM KCl) (porcine coronary artery): 4 % 60 mM KCl
Constrictor activity (specific activity) (porcine coronary artery): < 0.1
Relative potency [1]: 1.6
pA2 [1]: 5.9

SMILES: CC[C@H](C)[C@H](NC(=O)[C@H](CC(C)C)NC(=O)[C@H](CO)NC(=O)[C@H](CC(C)C)NC(=O)[C@H](Cc1c[nH]cn1)NC(=O)[C@@H]1CSSC[C@H](N)C(=O)N[C@@H](CO)C(=O)N[C@H]2CSSC[C@H](NC(=O)[C@H](CCC(=O)O)NC(=O)[C@H](CCCCN)NC(=O)[C@H](CC(=O)O)NC(=O)[C@H](CCSC)NC(=O)[C@H](CC(C)C)NC(=O)[C@H](CO)NC(=O)[C@H](CO)NC2=O)C(=O)N[C@@H](C(C)C)C(=O)N[C@@H](Cc2ccc(O)cc2)C(=O)N[C@@H](Cc2ccccc2)C(=O)N1)C(=O)N[C@@H](Cc1c[nH]c2ccccc12)C(=O)O [Example 6, [Ser^18, Leu^19]-ET-1] (H-CSCSSLMDKECVYFCHLSLIW-OH; disulfide 1-15, 3-11)
Receptor binding activity (specific activity) (endothelin receptor): 15
Maximum constriction (% 60 mM KCl) (porcine coronary artery): 1 % 60 mM KCl
Constrictor activity (specific activity) (porcine coronary artery): < 0.1
Relative potency [1]: 63
pA2 [1]: 7.5

SMILES: CC[C@H](C)[C@H](NC(=O)[C@H](CC1CCCCC1)NC(=O)[C@@H](NC(=O)[C@H](CC(C)C)NC(=O)[C@H](Cc1c[nH]cn1)NC(=O)[C@@H]1CSSC[C@H](N)C(=O)N[C@@H](CO)C(=O)N[C@H]2CSSC[C@H](NC(=O)[C@H](CCC(=O)O)NC(=O)[C@H](CCCCN)NC(=O)[C@H](CC(=O)O)NC(=O)[C@H](CCSC)NC(=O)[C@H](CC(C)C)NC(=O)[C@H](CO)NC(=O)[C@H](CO)NC2=O)C(=O)N[C@@H](C(C)C)C(=O)N[C@@H](Cc2ccc(O)cc2)C(=O)N[C@@H](Cc2ccccc2)C(=O)N1)[C@@H](C)O)C(=O)N[C@@H](Cc1c[nH]c2ccccc12)C(=O)O [Example 2, [Thr^18, Cha^19]-ET-1] (H-CSCSSLMDKECVYFCHLT[Cha]IW-OH; disulfide 1-15, 3-11)
Receptor binding activity (specific activity) (endothelin receptor): 23
Maximum constriction (% 60 mM KCl) (porcine coronary artery): 2 % 60 mM KCl
Constrictor activity (specific activity) (porcine coronary artery): < 0.1
pA2 ([1]; against cumulative endothelin-1, porcine coronary smooth muscles): 7.7

SMILES: CC[C@H](C)[C@H](NC(=O)[C@H](CC(C)C)NC(=O)[C@@H](NC(=O)[C@H](CC(C)C)NC(=O)[C@H](Cc1c[nH]cn1)NC(=O)[C@@H]1CSSC[C@H](N)C(=O)N[C@@H](CO)C(=O)N[C@H]2CSSC[C@H](NC(=O)[C@H](CCC(=O)O)NC(=O)[C@H](CCCCN)NC(=O)[C@H](CC(=O)O)NC(=O)[C@H](C)NC(=O)[C@H](CC(C)C)NC(=O)[C@H](CO)NC(=O)[C@H](CO)NC2=O)C(=O)N[C@@H](C(C)C)C(=O)N[C@@H](Cc2ccc(O)cc2)C(=O)N[C@@H](Cc2ccccc2)C(=O)N1)[C@@H](C)O)C(=O)N[C@@H](Cc1c[nH]c2ccccc12)C(=O)O [Example 16, [Ala^7, Thr^18, Leu^19]-ET-1] (H-CSCSSLADKECVYFCHLTLIW-OH; disulfide 1-15, 3-11)
Receptor binding activity (specific activity) (endothelin receptor): 62
Maximum constriction (% 60 mM KCl) (porcine coronary artery): 9 % 60 mM KCl
Constrictor activity (specific activity) (porcine coronary artery): < 0.1
pA2 [1]: 7.2

Second part, led by results:

Receptor binding activity (specific activity) (endothelin receptor): 57
SMILES: CC[C@H](C)[C@H](NC(=O)[C@H](CC(C)C)NC(=O)[C@@H](NC(=O)[C@H](CC(C)C)NC(=O)[C@H](Cc1c[nH]cn1)NC(=O)[C@@H]1CSSC[C@H](N)C(=O)N[C@@H](CO)C(=O)N[C@H]2CSSC[C@H](NC(=O)[C@H](CCC(=O)O)NC(=O)[C@H](CCCCN)NC(=O)[C@H](CC(=O)O)NC(=O)[C@H](CCSC)NC(=O)[C@H](CC(C)C)NC(=O)[C@H](CO)NC(=O)[C@H](C)NC2=O)C(=O)N[C@@H](C(C)C)C(=O)N[C@@H](Cc2ccc(O)cc2)C(=O)N[C@@H](Cc2ccccc2)C(=O)N1)[C@@H](C)O)C(=O)N[C@@H](Cc1c[nH]c2ccccc12)C(=O)O [Example 13, [Ala^4, Thr^18, Leu^19]-ET-1] (H-CSCASLMDKECVYFCHLTLIW-OH; disulfide 1-15, 3-11)
Maximum constriction (% 60 mM KCl) (porcine coronary artery): 6 % 60 mM KCl
Constrictor activity (specific activity) (porcine coronary artery): < 0.1
pA2 [1]: 6.9

Receptor binding activity (specific activity) (endothelin receptor): 9.5
SMILES: CC[C@H](C)[C@H](NC(=O)[C@H](CC(C)C)NC(=O)CNC(=O)[C@H](CC(C)C)NC(=O)[C@H](Cc1c[nH]cn1)NC(=O)[C@@H]1CSSC[C@H](N)C(=O)N[C@@H](CO)C(=O)N[C@H]2CSSC[C@H](NC(=O)[C@H](CCC(=O)O)NC(=O)[C@H](CCCCN)NC(=O)[C@H](CC(=O)O)NC(=O)[C@H](CCSC)NC(=O)[C@H](CC(C)C)NC(=O)[C@H](CO)NC(=O)[C@H](CO)NC2=O)C(=O)N[C@@H](C(C)C)C(=O)N[C@@H](Cc2ccc(O)cc2)C(=O)N[C@@H](Cc2ccccc2)C(=O)N1)C(=O)N[C@@H](Cc1c[nH]c2ccccc12)C(=O)O [Example 8, [Gly^18, Leu^19]-ET-1] (H-CSCSSLMDKECVYFCHLGLIW-OH; disulfide 1-15, 3-11)
Maximum constriction (% 60 mM KCl) (porcine coronary artery): 14 % 60 mM KCl
Constrictor activity (specific activity) (porcine coronary artery): < 0.1
Relative potency [1]: 10
pA2 [1]: 6.7

Receptor binding activity (specific activity) (endothelin receptor): 32
SMILES: CC[C@H](C)[C@H](NC(=O)[C@H](CC(C)C)NC(=O)[C@@H](NC(=O)[C@H](CC(C)C)NC(=O)[C@H](Cc1c[nH]cn1)NC(=O)[C@@H]1CSSC[C@H](N)C(=O)N[C@@H](C)C(=O)N[C@H]2CSSC[C@H](NC(=O)[C@H](CCC(=O)O)NC(=O)[C@H](CCCCN)NC(=O)[C@H](CC(=O)O)NC(=O)[C@H](CCSC)NC(=O)[C@H](CC(C)C)NC(=O)[C@H](CO)NC(=O)[C@H](CO)NC2=O)C(=O)N[C@@H](C(C)C)C(=O)N[C@@H](Cc2ccc(O)cc2)C(=O)N[C@@H](Cc2ccccc2)C(=O)N1)[C@@H](C)O)C(=O)N[C@@H](Cc1c[nH]c2ccccc12)C(=O)O [Example 12, [Ala^2, Thr^18, Leu^19]-ET-1] (H-CACSSLMDKECVYFCHLTLIW-OH; disulfide 1-15, 3-11)
Maximum constriction (% 60 mM KCl) (porcine coronary artery): 5 % 60 mM KCl
Constrictor activity (specific activity) (porcine coronary artery): < 0.1
pA2 [1]: 6.7

Receptor binding activity (specific activity) (endothelin receptor): 8.6
SMILES: CC[C@H](C)[C@H](NC(=O)[C@H](CC(C)C)NC(=O)[C@@H](NC(=O)[C@H](CC(C)C)NC(=O)[C@H](Cc1c[nH]cn1)NC(=O)[C@@H]1CSSC[C@H](N)C(=O)N[C@@H](CO)C(=O)N[C@H]2CSSC[C@H](NC(=O)[C@H](CCC(=O)O)NC(=O)[C@H](CCCCN)NC(=O)[C@H](CC(=O)O)NC(=O)[C@H](CCSC)NC(=O)[C@H](CC(C)C)NC(=O)[C@H](C)NC(=O)[C@H](CO)NC2=O)C(=O)N[C@@H](C(C)C)C(=O)N[C@@H](Cc2ccc(O)cc2)C(=O)N[C@@H](Cc2ccccc2)C(=O)N1)[C@@H](C)O)C(=O)N[C@@H](Cc1c[nH]c2ccccc12)C(=O)O [Example 14, [Ala^5, Thr^18, Leu^19]-ET-1] (H-CSCSALMDKECVYFCHLTLIW-OH; disulfide 1-15, 3-11)
Maximum constriction (% 60 mM KCl) (porcine coronary artery): 6 % 60 mM KCl
Constrictor activity (specific activity) (porcine coronary artery): < 0.1
Relative potency [1]: 0.6
pA2 [1]: 5.5
